Laboratory results reported in patent publication US5405837A, “Method for the treatment of neoplastic disease utilizing tiazofurin and ribavirin” (Indiana University Foundation, priority 1993, dated 1995).

What was measured:
IMP DH = IMP DH activity in ACI/N rats bearing s.c. transplanted hepatoma 3924A after tiazofurin and subsequent ribavirin; format: in vivo, rat
Protocol: In this example, ACI/N rats bearing s.c. transplanted hepatoma 3924A were administered daily i.p. injections of 150 mg/kg tiazofurin (trade name Tiazole, Viratek, Inc.) for two days. The rats were then divided into two groups: one received daily i.p. injections of saline, the other received 100 mg/kg ribavirin (trade name Virazole, Viratek, Inc.) for an additional two days.
Tiazofurin reduced the IMP DH activity to 10% and ribavirin maintained the inhibition of IMP DH activity at 20-30% of the control values. The IMP DH activity in the saline-treated rats returned to the untreated levels. (see FIGS. 1 through 5).

rat bone marrow = assay: Ribavirin alone versus tiazofurin, IMP DH activity and cellularity in rat bone marrow (FIGS. 1 and 2); format: in vivo; conditions: at lower doses
Source text: (see FIGS. 1 and 2). […] Bekesi, J. G. et al., Treatment of Spontaneous Leukemia in AKR Mice with Chemotherapy, Immunotherapy, or Interferon, Cancer Research 36:631-639 (1976).
FIG. 1 is a graph of experimental data showing the effect of Tiazofurin and subsequent Ribavirin treatment on IMP DH activity in rat bone marrow.
FIG. 2 is a graph of experimental data showing the effect of Tiazofuran and subsequent Ribavirin treatment on cellularity in rat bone marrow.

spontaneous leukemia = conditions: in some cases; Cancer Research 36:631-639 (1976); cited from earlier work

In the case of `NC(=O)c1csc([C@@H]2O[C@H](CO)[C@@H](O)[C@H]2O)n1` [tiazofurin, 2-β-D-ribofuranosylthiazole-4-carboxamide], the “IMP DH activity” value (IMP DH; 150 mg/kg tiazofurin daily i.p. for two days, ACI/N rats with hepatoma 3924A) is reported as 10%.

For `NC(=O)c1ncn([C@@H]2O[C@H](CO)[C@@H](O)[C@H]2O)n1` [ribavirin, 1-β-D-ribofuranosyl-1,2,4-triazole-3-carboxamide], the “effectiveness when administered alone” value (rat bone marrow) is given as “less effective than tiazofurin”, the “IMP DH activity, % of the control values” (IMP DH; 100 mg/kg ribavirin daily i.p. for two more days after two days of tiazofurin 150 mg/kg) is given as 20-30% and the antitumor effect (spontaneous leukemia) is given as “little or no antitumor effect”.
